Experimental data from US20220175764A1 (priority 2019, published 2022).
“Also recorded” adds a separate entry of the source.

Key:
DIAMOND™ mice [1] = assay type: in vivo; settings: 150 mg/kg oral gavage; arm terminated early
Protocol: 8 mice gavaged with Curcumin at a dose of 150 mg/kg.
8 mice dosed from week 8 (t=8) until week 20 (t=20) on the Western Diet Sugar Water with once (1×) daily oral gavage with curcumin 150 mg/kg.

DIAMOND™ mice [2] = assay: Liver weight at necropsy (Example 2); assay type: in vivo, mouse; settings: week 20
Protocol: Body weight and liver weight at time of euthanasia were recorded. Any abnormal gross anatomy signs on the body or liver would have been noted. […] The liver was processed into sections.

DIAMOND™ mice [3] = assay: Liver histology scoring, H&E and Sirius Red (Example 2); assay type: in vivo, mouse
Protocol: Liver samples were fixed in 10% neutral buffered formalin for 36-48 hours depending on the size of the sample before being placed into 70% alcohol. The samples were then processed into FFPE blocks. The FFPE blocks were sectioned and three (3) slides were cut per block and submitted for H&E and Sirius Red staining, and subsequent histology analysis. The samples' identity was blinded at the time of shipment for unbiased scoring.
Slide evaluation and scoring include NAS component scoring (fibrosis, steatosis grade and percentage, inflammation, ballooning), NAS score, SAF activity score, Fibrosis NASH CRN Score, Perisinusoidal Fibrosis score, and NASH category score. A histopathology sub-report is to be prepared containing scores and representative photographic images from each group.

DIAMOND™ mice [4] = assay: Gut permeability by serum dextran competitive ELISA after 4 kDa dextran gavage, WDSW-fed DIAMOND mice (Example 1); assay type: in vivo, mouse; settings: for Western Diet-induced GP (conclusion): Example 1 conclusion
Protocol: Pioglitazone was dosed at 30 mg/kg for the entire 12 weeks. Gut permeability (GP) was assessed twice at 12 weeks and 20 weeks by measuring dextran absorption into the bloodstream using a competitive enzyme-linked immunosorbent assay (ELISA) with 20 μL of serum collected by tail nick. Mice were gavaged with 4 kDa dextran at 600 mg/kg; the more permeable the gut, the more dextran is detected in serum. Results between dose groups were compared using Student's 2-tailed t-test, and pair-wise analysis was performed on serial measurements from week-12 to week-20 to assess drug impact on progression of GP over time. Serum and liver tissues were collected at necropsy, formalin-fixed, paraffin-embedded (FFPE) slides stained with H&E and Sirius Red, and liver pathology was assessed.

DIAMOND™ mice [5] = assay: Leaky gut assay / Dextran Assay - gut permeability at week 12 and week 20 (Example 2); assay type: in vivo, mouse; settings: for GP at week-12 compared to vehicle control (Arm-5): after 4 weeks of treatment; for GP at week-20 compared to vehicle control: after 12 weeks of treatment; for GP week-20 vs week-12: mice with data at both time points, paired t-test
Protocol: At 8 weeks on diet (t=8), mice were randomized into experimental groups based on the most recent body weight. […] Gut integrity/permeability was measured with the leaky gut assay on week 12 (one month on test article treatment) and on week 20 immediately prior to sacrifice. At each assay time point, between 0.2 ml and 0.4 ml of 4 kDa dextran solution (2 g/10 ml PBS solution, 0.2 g/mL) was orally gavaged to mice. After 4 hours, blood was collected from the tail vein and processed to serum. Dextran concentration in samples was measured by ELISA.
Gut integrity/permeability was measured with the leaky gut assay at two time points (12-week and 20-week) by competitive Dextran ELISA, 4 weeks after initial drug dosing with test article or vehicles, and immediately prior to sacrifice. Fresh fecal pellets were collected prior to each assay and placed into RNAlater and frozen (for possible future gut microbiome analysis).
• a. The leaky gut assay was performed at week 12 (one month on treatment) and immediately prior to sacrifice. • b. The procedure for the dextran was as follow: • i. 2 g of 4 kD dextran was weighed into a static free weigh dish. • ii. The dextran was mixed into a 10 ml of PBS solution. • iii. Between 0.2 ml and 0.4 ml of dextran solution was orally gavaged into mice. Each mouse staggered by 10 minutes to maintain blood dextran consistency during blood collection. • iv. 4 hours post gavage lidocaine applied to the tails of the mice in the order that they were gavaged. • v. The mice were lightly restrained in a mouse restraint device. • vi. After 5 minutes 70% alcohol was applied to a cotton swab and used to wipe off the lidocaine. • vii. Sterile scissors were used to perform a tail nick. • viii. 140 μl of whole blood was collected into a capillary tube. • ix. The capillary tubes were spun at 3,000 RPM for 8 minutes. • x. The capillary tubes were broken at the supernatant line and the serum was blown into an Eppendorf tube and snap frozen in liquid nitrogen.

DIAMOND™ mice [6] = assay: Serum lipid profile, Alere Cholestech LDX (Example 2); assay type: in vivo, mouse; settings: serum at necropsy
Protocol: (§1) Lipid (total cholesterol, LDL, HDL, triglycerides, HDL calc.) and hepatic (ALB, AST, ALT, Alk, Phos, BUN, GGT, T Bil) panels were performed as described below. Due to natural variations in mice physiology extra serum might not be available to repeat testing.
40-50 microliters of thawed serum were placed into the sample well of an AL-10-991 test cassette, then the test cassette placed into the Alere Cholestech LDX blood lipid analyzer. The Alere Cholestech is FDA approved and CLIA waived for human use at POC and is used by numerous drug companies and CROs in preclinical studies because it only requires a small amount of blood. It may be used with whole blood, serum or plasma for humans, but mouse blood clots much faster and so whole blood in our experience has a higher failure rate. We therefore used serum.
Readouts were: • 1. Total cholesterol (T-chol) • 2. Triglycerides (TRIGS) (45 lower LOD) • 3. Glucose (standard range) • 4. HDL (100 upper LOD) • 5. LDL (calculated T-Chol—HDL)

DIAMOND™ mice [7] = assay: Serum LFT / hepatic panel, Abaxis VS2 (Example 2); assay type: in vivo, mouse; settings: serum at necropsy
Protocol: as §1
Abaxis VS2 blood chemistry analyzers were used for measuring LFTs. This instrument is FDA approved for veterinary use, CLIA waived, and self-calibrating. It is the equivalent instrument to the Abaxis Piccolo instrument for human diagnostic testing. Phenobarbital test rotors (catalog #500-0049) were used which measure AST, ALT, ALP, GGT, ALB, and Total Bilirubin. The reactions are colorimetric, read automatically by the VS2 instrument, and results printed on a sticker which is attached to the necropsy specimen sheet and then entered into Excel. A minimum of 100 microliters of sample is needed for this test rotor, which may be either undiluted serum or diluted serum, in a ratio of 1:1 50 microliters of serum: 50 microliters of PBS without affecting accuracy of measurement of analytes. Significant hemolysis may render samples un-readable.

[8] = tested on: Staphylococcus, Streptococcus, Enterococcus, and Enterobacteriaceae; settings: species of Staphylococcus; cited from earlier work
DIAMOND™ mice [9] = assay: Blood glucose and ketones from tail nick (Example 2); assay type: in vivo, mouse; settings: at necropsy
Protocol: Following completion of the dosing period on t=20, the mice were placed into a clean cage and fasted for six (6) hours prior to euthanasia. Animals were euthanized by exposing them to carbon dioxide as an anesthetic followed by cardiac puncture for exsanguination. Cervical dislocation was performed as a secondary means of euthanasia. A volume of 3-5 μl of whole blood were collected from a tail nick premortem and used for glucose and ketone testing. A second volume of 300-500 μl of blood collected at euthanasia were processed to serum, aliquoted into small vials and flash frozen in liquid nitrogen for further tests including liver function and lipid tests as per study protocol. Remaining serum was stored frozen for further possible testing.
• a. Immediately prior to euthanasia a tail nick was performed. Whole blood was used to measure ketones and glucose. • b. Euthanasia—The mice were placed into a clean cage and fasted for 6 hours prior to euthanasia. Blood collection took place during euthanasia via cardiac puncture. The blood was collected into micro-serum separator tubes and processed to serum by centrifugation under 4 degrees Celsius for 15 minutes at 5,000 RMP, aliquoted in 100 μl aliquots, and serum flash frozen. Serum samples were stored frozen at −80° C. until use. […]

[10] = Results Analysis 2, Week 12, after 4 weeks of treatment
[11] = Results Analysis 2, Week 20, after 12 weeks of treatment
[12] = Results Analysis 1, pair-wise analysis
[13] = end of study, listed as Vitamin-E

SMILES	liver weight vs Vehicle Control (Arm-5) (DIAMOND™ mice [2])	prevalence of NASH (disease category) (DIAMOND™ mice [3]; end of study) [%]	Western Diet-induced GP (conclusion) (DIAMOND™ mice [4])	mean serum dextran concentration (DIAMOND™ mice [4]; [10]) [µg/mL]	fold reduction in mean serum dextran concentration compared with vehicle (DIAMOND™ mice [4]; Results Analysis 2, Week 20) [fold]	serum dextran concentration (significance) (DIAMOND™ mice [4]; Results Analysis 2, Week 20)	mean serum dextran concentration (DIAMOND™ mice [4]; [11]) [µg/mL]	GP at week-12 compared to vehicle control (Arm-5) (DIAMOND™ mice [5])	GP at week-20 compared to vehicle control (DIAMOND™ mice [5])	GP week-20 vs week-12 (DIAMOND™ mice [5])	triglycerides vs vehicle control (Arm-5) (DIAMOND™ mice [6])	BUN vs Vehicle control groups (Arm-5 and Arm-10) (DIAMOND™ mice [7])	Ketones blood level vs vehicle control (Arm-5) (DIAMOND™ mice [9])	also measured
COc1cc(/C=C/C(=O)CC(=O)/C=C/c2ccc(O)c(OC)c2)ccc1O [Curcumin]	–	–	–	–	–	–	–	–	–	–	–	–	–	mortality (DIAMOND™ mice [1]): excess mortality
C[N@+]1(CC2CC2)CC[C@]23c4c5ccc(O)c4O[C@H]2C(=O)CC[C@@]3(O)[C@H]1C5.[Br-] [MNTX, (R)-N-(cyclopropylmethyl) noroxymorphone methobromide]	significantly lower liver weight	38	dramatically improved	91	2.9	significant reduction	74.7	significantly lower GP	persists at week-20; also recorded: significantly lower GP	maintained	no significant effect	–	–	fold reduction of serum dextran compared to the VC group (DIAMOND™ mice [4]; Results Analysis 1, 12 week timepoint): 2.7 fold; serum dextran concentration (DIAMOND™ mice [4]; Results Analysis 1, 12 week timepoint, 4 weeks of treatment): 90.9 µg/mL; average serum dextran concentration, fold lower than the VC group (DIAMOND™ mice [4]; Results Analysis 1, 20 week timepoint, 12 weeks of treatment): 2 fold; fold reduction in mean serum dextran concentration compared with vehicle (DIAMOND™ mice [4]; Results Analysis 2, Week 12): 1.8 fold; serum dextran concentration relative to vehicle (significance) (DIAMOND™ mice [4]; Results Analysis 2, Week 12): significant reduction
CCc1ccc(CCOc2ccc(CC3SC(=O)NC3=O)cc2)nc1 (centres unmarked) [Pioglitazone]	–	–	–	121	3.0	–	71.8	–	–	–	–	significantly increased	–	steatosis-only (disease category) (DIAMOND™ mice [3]; end of treatment): 100%
CO[C@H]1/C=C/O[C@@]2(C)Oc3c(C)c(O)c4c(O)c(c5c(nc6cc(C)ccn65)c4c3C2=O)NC(=O)/C(C)=C\C=C\[C@H](C)[C@H](O)[C@@H](C)[C@@H](O)[C@@H](C)[C@H](OC(C)=O)[C@@H]1C [Rifaximin]	did not reduce liver weight	–	dramatically improved	151	–	significant reduction	81.2	no changes	significantly lower GP	borderline significant	no effect	significantly increased	slightly decreased; also recorded: decreased	Liver steatosis % vs control Arm-5 (DIAMOND™ mice [3]; end of study): increased; also recorded: slight increase in steatosis; in vitro antibacterial activity [8]: active; serum dextran average at 20 weeks (DIAMOND™ mice [4]; [12]): 85.9 µg/mL; serum dextran, 12-week average (DIAMOND™ mice [4]; [12]): 154.0 µg/mL; improvement of leaky gut in the 8 weeks between first and second measurement (DIAMOND™ mice [4]; Results Analysis 1, week 12 to week 20): 45%; improvement in leaky gut during the 8 weeks between assessments (DIAMOND™ mice [4]; Results Analysis 2, pair-wise, Week 12 to Week 20): 46.2%; triglycerides vs vehicle control (Arm-5) (DIAMOND™ mice [6]; listed as Arm-3): no significant effect
Cc1c(C)c2c(c(C)c1O)CC[C@@](C)(CCC[C@H](C)CCC[C@H](C)CCCC(C)C)O2 [Vitamin E, a-tocopherol]	lower	38	–	–	–	–	–	no effect	no effect	Trending upward	no effect	–	moved ketone levels up	Lobular inflammation vs control Arm-5 (DIAMOND™ mice [3]; end of study): increase; NAFLD Activity Score (NAS) vs control Arm-5 (DIAMOND™ mice [3]; end of study): slight increase; Steatosis, Activity and Fibrosis (SAF) score vs control Arm-5 (DIAMOND™ mice [3]; end of study): slight increase; Lobular inflammation vs control Arm-5 (DIAMOND™ mice [3]; [13]): increased; NAFLD Activity Score (NAS) vs control Arm-5 (DIAMOND™ mice [3]; [13]): increased; Steatosis, Activity and Fibrosis (SAF) score vs control Arm-5 (DIAMOND™ mice [3]; [13]): increased; ALT vs control vehicles (DIAMOND™ mice [7]): significantly increased; AST vs control vehicles (DIAMOND™ mice [7]): significantly increased; Albumin vs vehicle control (DIAMOND™ mice [7]): lower albumin; Albumin vs vehicle control (DIAMOND™ mice [7]; listed as Vitamin-E): decreased; GP week-20 vs week-12 (DIAMOND™ mice [5]; listed as Vit. E): trends toward an increase in GP; triglycerides vs vehicle control (Arm-5) (DIAMOND™ mice [6]; listed as Arm-9): no significant effect
